Values quoted from earlier work in patent US20140322356A1, “CTC BIOMARKER ASSAY TO COMBAT BREAST CANCER BRAIN METASTASIS” (Baylor College of Medicine, priority 2011, published 2014).

What was measured:
[1] = system: MDA-MB-435 carcinoma cells; details: MDA-MB-435 cells selected for metastatic growth in the brain
heparanase (HPSE) = molecular target: T1, heparanase (HPSE) (Homo sapiens, UniProt Q9Y251); details: statement from literature, no value given
T1 sequence (Q9Y251 36-543): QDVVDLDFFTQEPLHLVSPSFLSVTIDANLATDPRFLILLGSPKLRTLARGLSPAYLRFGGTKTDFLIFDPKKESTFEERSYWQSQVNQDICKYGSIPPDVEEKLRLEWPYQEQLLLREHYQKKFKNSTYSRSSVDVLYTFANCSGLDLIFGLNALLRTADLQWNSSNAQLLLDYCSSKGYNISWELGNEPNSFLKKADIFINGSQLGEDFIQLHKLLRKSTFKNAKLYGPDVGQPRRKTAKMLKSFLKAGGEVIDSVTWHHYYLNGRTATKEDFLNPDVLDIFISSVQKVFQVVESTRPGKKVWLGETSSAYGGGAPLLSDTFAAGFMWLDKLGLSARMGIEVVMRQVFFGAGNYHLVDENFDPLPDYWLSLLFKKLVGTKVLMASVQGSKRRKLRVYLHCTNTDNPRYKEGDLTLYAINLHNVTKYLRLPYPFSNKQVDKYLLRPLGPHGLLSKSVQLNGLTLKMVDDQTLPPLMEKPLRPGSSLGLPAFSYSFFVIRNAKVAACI

For C[C@H](NC(=O)Cc1cc(F)cc(F)c1)C(=O)N[C@H](C(=O)OC(C)(C)C)c1ccccc1 [DAPT], the “tumor cell migration and invasion in vitro” value [1] is given as “inhibited”.
In the case of Heparin, the inhibition of heparanase (heparanase (HPSE)) is given as “inhibitor of HPSE”.
